We go through 71 molecules from the PolyMetriX glass transition set.

Turning to `*=Nc1ccc(Cc2ccc(NC(=*)CC)cc2)cc1` (repeat unit), the glass transition temperature was determined as 130.00 °C.
Molecule `*CC(*)(C)C(=O)OCCCCCCN1CCN(c2ccc(/N=N/c3ccc(C#N)cc3)cc2)CC1` (repeat unit) had a glass transition temperature of 77.00 °C.
The value for `*CC(*)(C)C(=O)OCCCCCCN1CCN(c2ccc(/N=N/c3ccc([N+](=O)[O-])cc3)cc2)CC1` (repeat unit) was 60.00 °C; that for `*CC(*)(C)C(=O)OCCCCCCOc1ccc(/C=N/c2ccc(C#N)cc2)cc1` (repeat unit) was 35.00 °C; that for `*CC(*)(C)C(=O)OCCCCCCOc1ccc(/N=N/c2ccc(C#N)cc2)cc1` (repeat unit) was 61.00 °C.
Consider `*CC(*)(C)C(=O)OCCCCCCOc1ccc(/N=N/c2ccc(C3OCC4(CO3)CC3C=CC4C3)cc2)cc1` (repeat unit), for which the glass transition temperature came out at 118.50 °C.
With `*CC(*)(C)C(=O)OCCCCCCOc1ccc(/N=N/c2ccc(OCCCC)cc2)cc1` (repeat unit), the glass transition temperature worked out at 79.00 °C.
On to `*CC(*)(C)C(=O)OCCCCCCOc1ccc(/N=N/c2ccc(OCCCCCCCCCC)cc2)cc1` (repeat unit), for which the glass transition temperature came to 110.00 °C.
The value for `*CC(*)(C)C(=O)OCCCCCCOc1ccc(/N=N/c2ccc([N+](=O)[O-])cc2)cc1` (repeat unit) was 108.00 °C; that for `*CC(*)(C)C(=O)OCCCCCCOc1ccc(/N=N/c2ccncc2)cc1` (repeat unit) was 42.00 °C; that for `*CC(*)(C)C(=O)OCCCCCCOc1ccc(C(=O)Oc2ccc(/N=N/c3ccc(C#N)cc3)c3ccccc23)cc1` (repeat unit) was 41.00 °C.
`*CC(*)(C)C(=O)OCCCCCCOc1ccc(C(=O)Oc2ccc(OC)cc2)cc1` (repeat unit) had a glass transition temperature of 46.00 °C.
In the case of `*CC(*)(C)C(=O)OCCCCCCOc1ccc(OC(=O)c2ccc(-c3ccc(OC)cc3)cc2)cc1` (repeat unit), the glass transition temperature is 57.00 °C.
For `*CC(*)(C)C(=O)OCCCCCCOc1ccc2cc(C(=O)Oc3ccccc3)ccc2c1` (repeat unit), the glass transition temperature was determined as 39.00 °C.
With `*CC(*)(C)C(=O)OCCCCCCn1c2ccccc2c2ccccc21` (repeat unit) the figure was 73.00 °C; with `*CC(*)(C)C(=O)OCCCCCOc1ccc(-c2ccc(C#N)cc2)cc1` (repeat unit), 60.00 °C; with `*CC(*)(C)C(=O)OCCCCCc1ccc(/N=N/c2ccc(OC(F)(F)F)cc2)cc1` (repeat unit), 202.50 °C.
Consider `*CC(*)(C)C(=O)OCCCCOc1ccc(C(=O)Oc2ccc(OC)cc2)cc1` (repeat unit), for which the glass transition temperature came to 45.00 °C.
In the case of `*CC(*)(C)C(=O)OCCCCOc1ccc(OC(=O)c2ccc(OC)c(Br)c2)cc1` (repeat unit), the glass transition temperature was 69.00 °C.
Consider `*CC(*)(C)C(=O)OCCCCOc1ccc(OC(=O)c2ccc(OCCCCCCCC)cc2)cc1` (repeat unit), for which the glass transition temperature was 10.00 °C.
On to `*CC(*)(C)C(=O)OCCCCc1ccccc1` (repeat unit), for which the glass transition temperature was 9.00 °C.
The molecule `*CC(*)(C)C(=O)OCCCCn1c2ccccc2c2cc(/N=N/c3ccc([N+](=O)[O-])cc3[N+](=O)[O-])ccc21` (repeat unit) showed a glass transition temperature of 132.00 °C.
For `*CC(*)(C)C(=O)OCCCOc1ccc(C(=O)Oc2ccc3ccc(=O)oc3c2)cc1` (repeat unit), the glass transition temperature is 68.00 °C.
In turn, `*CC(*)(C)C(=O)OCCC[Si]12O[Si]3(CC(C)C)O[Si]4(CC(C)C)O[Si](CC(C)C)(O1)O[Si]1(CC(C)C)O[Si](CC(C)C)(O2)O[Si](CC(C)C)(O3)O[Si](CC(C)C)(O4)O1` (repeat unit) returned a glass transition temperature of 85.00 °C.
The molecule `*CC(*)(C)C(=O)OCCCc1ccc(/N=N/c2ccc(OC(F)(F)F)cc2)cc1` (repeat unit) yielded a glass transition temperature of 211.50 °C.
Molecule `*CC(*)(C)C(=O)OCCF` (repeat unit) displayed a glass transition temperature of 90.00 °C.
On to `*CC(*)(C)C(=O)OCCN(C)c1ccc(/C=C/c2ccc([N+](=O)[O-])cc2)cc1` (repeat unit), for which the glass transition temperature stood at 107.00 °C.
Turning to `*CC(*)(C)C(=O)OCCN(C)c1ccc(/N=N/c2ccc([N+](=O)[O-])cc2)cc1` (repeat unit), the glass transition temperature turned out to be 110.00 °C.
With `*CC(*)(C)C(=O)OCCN(CC)c1ccc(/N=N/c2ccc(S(C)(=O)=O)cc2)cc1` (repeat unit) the figure was 144.00 °C; with `*CC(*)(C)C(=O)OCCN(CC)c1ccc(/N=N/c2ccc([N+](=O)[O-])cc2)cc1` (repeat unit), 126.00 °C.
Consider `*CC(*)(C)C(=O)OCCNC(C)(C)C` (repeat unit), for which the glass transition temperature was found to be 41.00 °C.
As to `*CC(*)(C)C(=O)OCCOC` (repeat unit), the glass transition temperature came to 24.00 °C.
Molecule `*CC(*)(C)C(=O)OCCOC(=O)c1cc([N+](=O)[O-])cc([N+](=O)[O-])c1` (repeat unit) had a glass transition temperature of 92.00 °C.
Molecule `*CC(*)(C)C(=O)OCCOCCO` (repeat unit) had a glass transition temperature of 20.00 °C.
The value for `*CC(*)(C)C(=O)OCCOCCOC` (repeat unit) was 57.00 °C; that for `*CC(*)(C)C(=O)OCCOCCOCC1(C)COCCOCCOCCOC1` (repeat unit) was 10.00 °C; that for `*CC(*)(C)C(=O)OCCOCCOCCOCCOc1ccc(/N=N/c2ccc(C#N)cc2)cc1` (repeat unit) was 20.00 °C.
On to `*CC(*)(C)C(=O)OCCOCCOCC[N+](CC)(CC)CCCCS(=O)(=O)O` (repeat unit), for which the glass transition temperature is 27.00 °C.
With `*CC(*)(C)C(=O)OCCOCCOc1ccc(/N=N/c2ccc(C#N)cc2)cc1` (repeat unit) the figure was 57.00 °C; with `*CC(*)(C)C(=O)OCCO[Si](C)(C)C` (repeat unit), 89.00 °C; with `*CC(*)(C)C(=O)OCCOc1ccc(-c2ccc(-c3ccc(C#N)cc3)cc2)cc1` (repeat unit), 115.00 °C.
Consider `*CC(*)(C)C(=O)OCCOc1ccc(/N=N/c2ccc([N+](=O)[O-])cc2)cc1` (repeat unit), for which the glass transition temperature turned out to be 112.00 °C.
In turn, `*CC(*)(C)C(=O)OCCS(=O)(=O)c1ccc(/N=N/c2ccc(N(CC)CC)cc2)cc1` (repeat unit) yielded a glass transition temperature of 142.00 °C.
Take `*CC(*)(C)C(=O)OCC[N+](C)(C)CCCCCCC` (repeat unit): the glass transition temperature was -44.00 °C.
With `*CC(*)(C)C(=O)OCCc1ccc(/N=N/c2ccccc2)cc1` (repeat unit), the glass transition temperature was 80.00 °C.
The value for `*CC(*)(C)C(=O)OCCn1c2ccccc2c2cc(/N=N/c3ccc([N+](=O)[O-])cc3[N+](=O)[O-])ccc21` (repeat unit) was 182.00 °C; that for `*CC(*)(C)C(=O)OCc1c(Cl)cccc1Cl` (repeat unit) was 58.90 °C.
As to `*CC(*)(C)C(=O)OCc1c(F)cccc1F` (repeat unit), the glass transition temperature stood at 82.00 °C.
In turn, `*CC(*)(C)C(=O)OCc1cc(Cl)cc(Cl)c1` (repeat unit) yielded a glass transition temperature of 30.0 °C.
As to `*CC(*)(C)C(=O)OCc1ccc(OCCOCC)c(OCCOCC)c1` (repeat unit), the glass transition temperature is -2.00 °C.
Consider `*CC(*)(C)C(=O)OCc1ccc2c(c1)c1ccccc1n2CCCCCCCC` (repeat unit), for which the glass transition temperature turned out to be 45.00 °C.
In the case of `*CC(*)(C)C(=O)OCc1ccc2c(c1)c1ccccc1n2CCCCCCCCCC` (repeat unit), the glass transition temperature worked out at 29.00 °C.
Molecule `*CC(*)(C)C(=O)OCc1ccccc1Cl` (repeat unit) came in with a glass transition temperature of 54.10 °C.
With `*CC(*)(C)C(=O)O[Si](C)(C)C` (repeat unit) the figure was 97.50 °C.
`*CC(*)(C)C(=O)Oc1c(C(C)C)cccc1C(C)C` (repeat unit) yielded a glass transition temperature of 198.00 °C.
Take `*CC(*)(C)C(=O)Oc1cc(C)ccc1C` (repeat unit): the glass transition temperature is 111.00 °C.
`*CC(*)(C)C(=O)Oc1ccc(/N=N/c2ccc(OCCCCCCCCCCCOC(=O)c3ccc4c(c3)OCCOCCOCCOCCO4)cc2)cc1` (repeat unit) yielded a glass transition temperature of 19.00 °C.
Molecule `*CC(*)(C)C(=O)Oc1ccc(C(=O)/C=C/c2ccc(Cl)cc2)cc1` (repeat unit) yielded a glass transition temperature of 127.00 °C.
In turn, `*CC(*)(C)C(=O)Oc1ccc(C(=O)Oc2ccc(C)cc2)cc1` (repeat unit) displayed a glass transition temperature of 98.00 °C.
`*CC(*)(C)C(=O)Oc1ccc(C(=O)Oc2ccc(OC)cc2)cc1` (repeat unit) displayed a glass transition temperature of 77.00 °C.
Regarding `*CC(*)(C)C(=O)Oc1ccc(C(=O)Oc2ccccc2)cc1` (repeat unit), the glass transition temperature amounted to 99.00 °C.
For `*CC(*)(C)C(=O)Oc1ccc(C(C)(C)C)cc1` (repeat unit), the glass transition temperature stood at 91.00 °C.
`*CC(*)(C)C(=O)Oc1ccc(C)cc1C` (repeat unit) came in with a glass transition temperature of 109.00 °C.
For the molecule `*CC(*)(C)C(=O)Oc1ccc(OCc2ccccc2)cc1` (repeat unit), the glass transition temperature turned out to be 95.30 °C.
Take `*CC(*)(C)C(=O)Oc1cccc(C)c1C` (repeat unit): the glass transition temperature came out at 120.00 °C.
In turn, `*CC(*)(C)C(=O)Oc1ccccc1` (repeat unit) returned a glass transition temperature of 110.00 °C.
With `*CC(*)(C)C(N)=O` (repeat unit), the glass transition temperature was determined as 88.70 °C.
`*CC(*)(C)CCC` (repeat unit) yielded a glass transition temperature of 27.00 °C.
For `*CC(*)(C)c1ccc(C(O)C(F)(F)F)cc1` (repeat unit), the glass transition temperature came out at 199.00 °C.
The molecule `*N=P(Cl)(N=P(Cl)(/N=S(/*)Oc1ccccc1-c1ccccc1)Oc1ccccc1-c1ccccc1)Oc1ccccc1-c1ccccc1` (repeat unit) had a glass transition temperature of 79.00 °C.
In the case of `*Oc1ccc(/C(C)=N/c2ccc(/N=C(\C)c3ccc(Oc4ccc(C(C)(C)c5ccc(*)cc5)cc4)cc3)cc2)cc1` (repeat unit), the glass transition temperature was 161.00 °C.
